Several values for one entry are separate records, joined by “and”; a condition that tells them apart may be missing. Identical values can stand only once. Toxic doses and inconclusive results are not listed. Rule for the calls: active = survival T/C of 150% or more; inactive = T/C below 125% in these data.
System: P388 leukemia ip, CD2F1 mice, survival T/C
Experiment: NCI In Vivo Anticancer Drug Screen. Data for tumor model P388 Leukemia (intraperitoneal) in CD2F1 (CDF1) mice
Conditions: endpoint: median survival time, higher = longer survival
How it was run: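 Mice carrying the transplanted tumor received test compound or vehicle. Survival was recorded in each group, and the value is the treated-group measurement divided by that of the vehicle-treated control group.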

[1] = dose: 50.0 mg/kg/injection, schedule: Q01DX009 (ip), vehicle: saline with Tween-80
[2] = dose: 200.0 mg/kg/injection, schedule: Q01DX009 (ip), vehicle: saline with Tween-80
[3] = dose: 50.0 mg/kg/injection, schedule: Q01DX005 (ip), vehicle: Klucel (hydroxypropylcellulose) (HPC)
[4] = dose: 12.5 mg/kg/injection, schedule: Q01DX009 (ip), vehicle: saline
[5] = dose: 25.0 mg/kg/injection, schedule: Q01DX009 (ip), vehicle: saline
[6] = dose: 60.0 mg/kg/injection, schedule: Q01DX005 (ip), vehicle: saline with Tween-80
[7] = dose: 120.0 mg/kg/injection, schedule: Q01DX005 (ip), vehicle: saline with Tween-80
[8] = dose: 240.0 mg/kg/injection, schedule: Q01DX005 (ip), vehicle: saline with Tween-80
[9] = dose: 50.0 mg/kg/injection, schedule: Q01DX009 (ip), vehicle: saline
[10] = dose: 100.0 mg/kg/injection, schedule: Q04DX002 (ip), vehicle: saline with Tween-80
[11] = dose: 200.0 mg/kg/injection, schedule: Q04DX002 (ip), vehicle: saline with Tween-80
[12] = dose: 400.0 mg/kg/injection, schedule: Q04DX002 (ip), vehicle: saline with Tween-80

Measured: T/C

C=C1CC/C=C(/C)C(=O)C(OC(C)=O)C2C1CC2(C)C (stereo not given)
inactive: dose: 1.75 mg/kg/injection, schedule: Q01DX009 (ip), vehicle: saline + Tween-80 + alcohol 105 % of control | dose: 1.75 mg/kg/injection, schedule: Q01DX009 (ip), vehicle: saline + alcohol 105 % of control and 111 % of control | dose: 3.5 mg/kg/injection, schedule: Q01DX009 (ip), vehicle: saline + Tween-80 + alcohol 102 % of control | dose: 3.5 mg/kg/injection, schedule: Q01DX009 (ip), vehicle: saline + alcohol 102 % of control and 103 % of control and 114 % of control | dose: 7.0 mg/kg/injection, schedule: Q01DX009 (ip), vehicle: saline + Tween-80 + alcohol 111 % of control | dose: 7.0 mg/kg/injection, schedule: Q01DX009 (ip), vehicle: saline + alcohol 101 % of control and 105 % of control and 114 % of control | dose: 14.0 mg/kg/injection, schedule: Q01DX009 (ip), vehicle: saline + Tween-80 + alcohol 116 % of control | dose: 14.0 mg/kg/injection, schedule: Q01DX009 (ip), vehicle: saline + alcohol 111 % of control and 113 % of control and 114 % of control | dose: 28.0 mg/kg/injection, schedule: Q01DX009 (ip), vehicle: saline + Tween-80 + alcohol 120 % of control | dose: 28.0 mg/kg/injection, schedule: Q01DX009 (ip), vehicle: saline + alcohol 111 % of control and 115 % of control and 121 % of control | dose: 56.0 mg/kg/injection, schedule: Q01DX009 (ip), vehicle: saline + Tween-80 + alcohol 116 % of control

CN(C)c1nc(=[N+](C)C)ss1
inactive: [1] 90 % of control | dose: 100.0 mg/kg/injection, schedule: Q01DX009 (ip), vehicle: saline with Tween-80 100 % of control | [2] 113 % of control

O=c1c2ccccc2sc2c1c(N(CCCl)CCCl)cc1ccccc12
inactive: dose: 25.0 mg/kg/injection, schedule: Q01DX005 (ip), vehicle: distilled water + Tween-80 92 % of control | dose: 50.0 mg/kg/injection, schedule: Q01DX005 (ip), vehicle: distilled water + Tween-80 94 % of control | dose: 100.0 mg/kg/injection, schedule: Q01DX005 (ip), vehicle: distilled water + Tween-80 94 % of control | dose: 200.0 mg/kg/injection, schedule: Q01DX005 (ip), vehicle: distilled water + Tween-80 95 % of control

O=C(O)C(Nc1ccc2ccccc2c1)C(=O)O
inactive: dose: 50.0 mg/kg/injection, schedule: Q01DX005 (ip), vehicle: saline with Tween-80 94 % of control | dose: 100.0 mg/kg/injection, schedule: Q01DX005 (ip), vehicle: saline with Tween-80 103 % of control | dose: 200.0 mg/kg/injection, schedule: Q01DX005 (ip), vehicle: saline with Tween-80 94 % of control

CC(=O)OC1CC(/C=C/C(=O)OC2=C(O)CCC2=O)=CN1 (stereo not given)
inactive: dose: 4.37 mg/kg/injection, schedule: Q01DX001 (ip), vehicle: Klucel (hydroxypropylcellulose) (HPC) 100 % of control | dose: 8.75 mg/kg/injection, schedule: Q01DX001 (ip), vehicle: Klucel (hydroxypropylcellulose) (HPC) 99 % of control | dose: 17.5 mg/kg/injection, schedule: Q01DX001 (ip), vehicle: Klucel (hydroxypropylcellulose) (HPC) 102 % of control | dose: 35.0 mg/kg/injection, schedule: Q01DX001 (ip), vehicle: Klucel (hydroxypropylcellulose) (HPC) 105 % of control

OCCN(CCO)c1cc2c3ccccc3ccc2c2ccccc12
inactive: [3] 87 % of control | dose: 100.0 mg/kg/injection, schedule: Q01DX005 (ip), vehicle: Klucel (hydroxypropylcellulose) (HPC) 103 % of control | dose: 200.0 mg/kg/injection, schedule: Q01DX005 (ip), vehicle: Klucel (hydroxypropylcellulose) (HPC) 98 % of control

NC(N)=Nc1ccc(-c2cc3cc(N=C(N)N)ccc3s2)cc1
inactive: dose: 6.25 mg/kg/injection, schedule: Q01DX005 (ip), vehicle: Klucel (hydroxypropylcellulose) (HPC) 108 % of control | dose: 12.5 mg/kg/injection, schedule: Q01DX005 (ip), vehicle: Klucel (hydroxypropylcellulose) (HPC) 105 % of control | dose: 25.0 mg/kg/injection, schedule: Q01DX005 (ip), vehicle: Klucel (hydroxypropylcellulose) (HPC) 115 % of control
active: [3] 168 % of control

CCOC(=O)OC(C#N)(c1ccc([N+](=O)[O-])cc1)c1nccc2ccccc12 (stereo not given)
inactive: [4] 93 % of control | [5] 97 % of control | dose: 50.0 mg/kg/injection, schedule: Q01DX009 (ip), vehicle: suspension in saline 87 % of control

CCOC(=S)SCC(=O)C1(O)Cc2c(O)c3c(c(O)c2C(OC2CC(N)C(O)C(C)O2)C1)C(=O)c1c(OC)cccc1C3=O (stereo not given)
inactive: dose: 1.56 mg/kg/injection, schedule: Q01DX009 (ip), vehicle: other 120 % of control | dose: 3.13 mg/kg/injection, schedule: Q01DX009 (ip), vehicle: other 123 % of control | dose: 37.5 mg/kg/injection, schedule: Q04DX003 (ip), vehicle: other 121 % of control | dose: 75.0 mg/kg/injection, schedule: Q04DX003 (ip), vehicle: other 94 % of control | dose: 150.0 mg/kg/injection, schedule: Q04DX003 (ip), vehicle: other 99 % of control

O=C(O)c1nnn(-c2ccccc2)n1
inactive: dose: 50.0 mg/kg/injection, schedule: Q01DX005 (ip), vehicle: saline 101 % of control | dose: 100.0 mg/kg/injection, schedule: Q01DX005 (ip), vehicle: saline 101 % of control | dose: 200.0 mg/kg/injection, schedule: Q01DX005 (ip), vehicle: saline 106 % of control

CCCCCC(Cn1ccnc1)c1ccccc1Br (stereo not given)
inactive: dose: 25.0 mg/kg/injection, schedule: Q04DX003 (ip), vehicle: saline with Tween-80 106 % of control | dose: 33.0 mg/kg/injection, schedule: Q04DX003 (ip), vehicle: saline with Tween-80 107 % of control | dose: 50.0 mg/kg/injection, schedule: Q04DX003 (ip), vehicle: saline with Tween-80 100 % of control and 108 % of control and 122 % of control | dose: 75.0 mg/kg/injection, schedule: Q04DX003 (ip), vehicle: saline with Tween-80 92 % of control | dose: 100.0 mg/kg/injection, schedule: Q04DX003 (ip), vehicle: saline with Tween-80 106 % of control and 111 % of control and 90 % of control

O=C1c2ccccc2C(=O)c2c1c([N+](=O)[O-])c1c(c2[N+](=O)[O-])OCO1
inactive: [6] 86 % of control | [7] 86 % of control | [8] 96 % of control

CC1=NN(c2ccccc2)C(=O)C1N=Nc1cc([N+](=O)[O-])cc(S(=O)(=O)O)c1O.CC1=NN(c2ccccc2)C(=O)C1N=Nc1cc([N+](=O)[O-])cc(S(=O)(=O)O)c1O.[Cr] (stereo not given)
inactive: [5] 106 % of control and 108 % of control | [9] 111 % of control and 112 % of control and 115 % of control | dose: 100.0 mg/kg/injection, schedule: Q01DX009 (ip), vehicle: saline 119 % of control and 124 % of control (2×) | dose: 200.0 mg/kg/injection, schedule: Q01DX009 (ip), vehicle: saline 101 % of control and 103 % of control and 115 % of control

CCCCCCCCCCCCCCCCN(C)C(C)c1ccccc1 (stereo not given)
inactive: [10] 103 % of control | [11] 101 % of control | [12] 104 % of control

O=S(=O)(Nc1ccc(C(F)(F)F)cc1)c1ccc(F)cc1
inactive: [6] 100 % of control | [7] 100 % of control | [8] 104 % of control

CCCOCn1cc(F)c(=O)n(COCCC)c1=O
inactive: dose: 5.62 mg/kg/injection, schedule: Q04DX002 (ip), vehicle: water 95 % of control | dose: 11.25 mg/kg/injection, schedule: Q04DX002 (ip), vehicle: water 93 % of control | dose: 22.5 mg/kg/injection, schedule: Q04DX002 (ip), vehicle: water 92 % of control | dose: 45.0 mg/kg/injection, schedule: Q04DX002 (ip), vehicle: water 92 % of control | dose: 90.0 mg/kg/injection, schedule: Q04DX002 (ip), vehicle: water 91 % of control | dose: 180.0 mg/kg/injection, schedule: Q04DX002 (ip), vehicle: water 95 % of control

CC1(C)CC2(C)OCCN2C(=S)N1 (stereo not given)
inactive: dose: 50.0 mg/kg/injection, schedule: Q01DX009 (ip), vehicle: Klucel (hydroxypropylcellulose) (HPC) 100 % of control | dose: 100.0 mg/kg/injection, schedule: Q01DX009 (ip), vehicle: Klucel (hydroxypropylcellulose) (HPC) 90 % of control | dose: 200.0 mg/kg/injection, schedule: Q01DX009 (ip), vehicle: Klucel (hydroxypropylcellulose) (HPC) 89 % of control

CC(=O)NC1C(OC(C)=O)OC(CS[As](C)C)C(OC(C)=O)C1OC(C)=O (stereo not given)
inactive: dose: 25.0 mg/kg/injection, schedule: Q01DX009 (ip), vehicle: saline with Tween-80 118 % of control | [1] 111 % of control

CCCCCCCCCCCCCCCCN1C(=O)/C(=C\c2ccc(O)cc2)SC1=Nc1ccccc1
inactive: [4] 90 % of control | [5] 88 % of control | [1] 95 % of control | [9] 91 % of control | [2] 92 % of control

CN(C)c1ccc(C2(c3ccccc3)c3ccccc3C(=O)N2N)cc1 (stereo not given)
inactive: [10] 89 % of control | [11] 89 % of control | [12] 90 % of control

From PubChem BioAssay AID330 (DTP/NCI, 2004)
